Measured values taken from the NIST ThermoML archive (doi:10.1021/je900632q).
± gives the expanded uncertainty stated by the source.

Test: xn = mol fraction of the nth substance listed
Settings: 101 kPa, Liquid

Work on `CCCCn1cc[n+](C)c1.N#CN=C=[N-]` [1-butyl-3-methylimidazolium dicyanamide] + O yielded a mass density (278.15 K, x2 = 0) of 1075.8 ± 1.2 kg/m3, a viscosity (278.15 K, x2 = 0) of 82.07 ± 2.3 mPa·s and a mass density (278.15 K, x2 = 0.059) of 1075.3 ± 1.2 kg/m3. For the same compound, the viscosity (278.15 K, x2 = 0.059) was 74.2 ± 1.6 mPa·s, the mass density (278.15 K, x2 = 0.1963) was 1074.3 ± 1.2 kg/m3 and the viscosity (278.15 K, x2 = 0.1963) was 58.7 ± 0.68 mPa·s. The mass density (278.15 K, x2 = 0.2736) was 1072.8 ± 1.1 kg/m3, the viscosity (278.15 K, x2 = 0.2736) was 48.94 ± 0.69 mPa·s and the mass density (278.15 K, x2 = 0.35) was 1071.1 ± 1.1 kg/m3. For the same compound, the viscosity (278.15 K, x2 = 0.35) was 37.6 ± 0.53 mPa·s, the mass density (278.15 K, x2 = 0.3974) was 1069.4 ± 1.1 kg/m3 and the viscosity (278.15 K, x2 = 0.3974) was 31.98 ± 0.45 mPa·s. For the same compound, the mass density (278.15 K, x2 = 0.4831) was 1066.2 ± 1.1 kg/m3, the viscosity (278.15 K, x2 = 0.4831) was 23.22 ± 0.33 mPa·s and the mass density (288.15 K, x2 = 0) was 1069.4 ± 1.2 kg/m3. For the same compound, the viscosity (288.15 K, x2 = 0) was 48.93 ± 0.71 mPa·s, the mass density (288.15 K, x2 = 0.059) was 1068.9 ± 1.2 kg/m3 and the viscosity (288.15 K, x2 = 0.059) was 44.99 ± 0.65 mPa·s. For the same compound, the mass density (288.15 K, x2 = 0.1963) was 1067.8 ± 1.1 kg/m3, the viscosity (288.15 K, x2 = 0.1963) was 36.45 ± 0.52 mPa·s and the mass density (288.15 K, x2 = 0.2736) was 1066.4 ± 1.1 kg/m3. For the same compound, the viscosity (288.15 K, x2 = 0.2736) was 30.87 ± 0.44 mPa·s, the mass density (288.15 K, x2 = 0.35) was 1064.6 ± 1.1 kg/m3 and the viscosity (288.15 K, x2 = 0.35) was 24.28 ± 0.35 mPa·s. It also gave a mass density (288.15 K, x2 = 0.3974) of 1062.9 ± 1.1 kg/m3, a viscosity (288.15 K, x2 = 0.3974) of 20.88 ± 0.3 mPa·s and a mass density (288.15 K, x2 = 0.4831) of 1059.6 ± 1.1 kg/m3. For the same compound, the viscosity (288.15 K, x2 = 0.4831) was 15.38 ± 0.22 mPa·s, the mass density (298.15 K, x2 = 0) was 1063.1 ± 1.2 kg/m3 and the viscosity (298.15 K, x2 = 0) was 31.8 ± 0.47 mPa·s. It also gave a mass density (298.15 K, x2 = 0.059) of 1062.5 ± 1.2 kg/m3, a viscosity (298.15 K, x2 = 0.059) of 29.55 ± 0.43 mPa·s and a mass density (298.15 K, x2 = 0.1963) of 1061.4 ± 1.1 kg/m3. The viscosity (298.15 K, x2 = 0.1963) was 24.4 ± 0.35 mPa·s, the mass density (298.15 K, x2 = 0.2736) was 1059.9 ± 1.1 kg/m3 and the viscosity (298.15 K, x2 = 0.2736) was 20.94 ± 0.3 mPa·s. It also gave a mass density (298.15 K, x2 = 0.35) of 1059.1 ± 1.1 kg/m3, a viscosity (298.15 K, x2 = 0.35) of 16.75 ± 0.24 mPa·s and a mass density (298.15 K, x2 = 0.3974) of 1056.3 ± 1.1 kg/m3. It also gave a viscosity (298.15 K, x2 = 0.3974) of 14.52 ± 0.21 mPa·s, a mass density (298.15 K, x2 = 0.4831) of 1052.9 ± 1.1 kg/m3 and a viscosity (298.15 K, x2 = 0.4831) of 10.8 ± 0.16 mPa·s. The mass density (308.15 K, x2 = 0) was 1056.8 ± 1.2 kg/m3, the viscosity (308.15 K, x2 = 0) was 21.79 ± 0.32 mPa·s and the mass density (308.15 K, x2 = 0.059) was 1056.2 ± 1.2 kg/m3. For the same compound, the viscosity (308.15 K, x2 = 0.059) was 20.6 ± 0.3 mPa·s, the mass density (308.15 K, x2 = 0.1963) was 1055 ± 1.1 kg/m3 and the viscosity (308.15 K, x2 = 0.1963) was 17.29 ± 0.25 mPa·s. It also gave a mass density (308.15 K, x2 = 0.2736) of 1053.6 ± 1.1 kg/m3, a viscosity (308.15 K, x2 = 0.2736) of 15 ± 0.22 mPa·s and a mass density (308.15 K, x2 = 0.35) of 1051.6 ± 1.1 kg/m3. It also gave a viscosity (308.15 K, x2 = 0.35) of 12.16 ± 0.18 mPa·s, a mass density (308.15 K, x2 = 0.3974) of 1049.8 ± 1.1 kg/m3 and a viscosity (308.15 K, x2 = 0.3974) of 10.61 ± 0.16 mPa·s. For the same compound, the mass density (308.15 K, x2 = 0.4831) was 1046.2 ± 1.1 kg/m3, the viscosity (308.15 K, x2 = 0.4831) was 7.951 ± 0.12 mPa·s and the mass density (318.15 K, x2 = 0) was 1050.6 ± 1.2 kg/m3. For the same compound, the viscosity (318.15 K, x2 = 0) was 15.88 ± 0.24 mPa·s, the mass density (318.15 K, x2 = 0.059) was 1050.1 ± 1.1 kg/m3 and the viscosity (318.15 K, x2 = 0.059) was 15.09 ± 0.23 mPa·s. For the same compound, the mass density (318.15 K, x2 = 0.1963) was 1048.7 ± 1.1 kg/m3, the viscosity (318.15 K, x2 = 0.1963) was 12.82 ± 0.19 mPa·s and the mass density (318.15 K, x2 = 0.2736) was 1047.3 ± 1.1 kg/m3. It also gave a viscosity (318.15 K, x2 = 0.2736) of 11.22 ± 0.17 mPa·s, a mass density (318.15 K, x2 = 0.35) of 1045.2 ± 1.1 kg/m3 and a viscosity (318.15 K, x2 = 0.35) of 9.198 ± 0.14 mPa·s. It also gave a mass density (318.15 K, x2 = 0.3974) of 1043.3 ± 1.1 kg/m3, a viscosity (318.15 K, x2 = 0.3974) of 8.072 ± 0.12 mPa·s and a mass density (318.15 K, x2 = 0.4831) of 1039.6 ± 1.1 kg/m3. For the same compound, the viscosity (318.15 K, x2 = 0.4831) was 6.072 ± 0.095 mPa·s, the mass density (328.15 K, x2 = 0) was 1044.4 ± 1.1 kg/m3 and the viscosity (328.15 K, x2 = 0) was 12.06 ± 0.18 mPa·s. For the same compound, the mass density (328.15 K, x2 = 0.059) was 1043.9 ± 1.1 kg/m3, the viscosity (328.15 K, x2 = 0.059) was 11.49 ± 0.17 mPa·s and the mass density (328.15 K, x2 = 0.1963) was 1042.4 ± 1.1 kg/m3. It also gave a viscosity (328.15 K, x2 = 0.1963) of 9.885 ± 0.15 mPa·s, a mass density (328.15 K, x2 = 0.2736) of 1041 ± 1.1 kg/m3 and a viscosity (328.15 K, x2 = 0.2736) of 8.702 ± 0.13 mPa·s. For the same compound, the mass density (328.15 K, x2 = 0.35) was 1038.8 ± 1.1 kg/m3, the viscosity (328.15 K, x2 = 0.35) was 7.202 ± 0.11 mPa·s and the mass density (328.15 K, x2 = 0.3974) was 1036.9 ± 1.1 kg/m3. For the same compound, the viscosity (328.15 K, x2 = 0.3974) was 6.346 ± 0.099 mPa·s, the mass density (328.15 K, x2 = 0.4831) was 1033 ± 1.1 kg/m3 and the viscosity (328.15 K, x2 = 0.4831) was 4.792 ± 0.078 mPa·s. For the same compound, the mass density (338.15 K, x2 = 0) was 1038.2 ± 1.1 kg/m3, the viscosity (338.15 K, x2 = 0) was 9.475 ± 0.15 mPa·s and the mass density (338.15 K, x2 = 0.059) was 1037.7 ± 1.1 kg/m3. It also gave a viscosity (338.15 K, x2 = 0.059) of 9.047 ± 0.14 mPa·s, a mass density (338.15 K, x2 = 0.1963) of 1036.2 ± 1.1 kg/m3 and a viscosity (338.15 K, x2 = 0.1963) of 7.852 ± 0.12 mPa·s. It also gave a mass density (338.15 K, x2 = 0.2736) of 1034.7 ± 1.1 kg/m3, a viscosity (338.15 K, x2 = 0.2736) of 6.95 ± 0.11 mPa·s and a mass density (338.15 K, x2 = 0.35) of 1032.4 ± 1.1 kg/m3. It also gave a viscosity (338.15 K, x2 = 0.35) of 5.798 ± 0.092 mPa·s, a mass density (338.15 K, x2 = 0.3974) of 1030.5 ± 1.1 kg/m3 and a viscosity (338.15 K, x2 = 0.3974) of 5.126 ± 0.082 mPa·s. The mass density (338.15 K, x2 = 0.4831) was 1026.4 ± 1.1 kg/m3, the viscosity (338.15 K, x2 = 0.4831) was 3.884 ± 0.065 mPa·s and the mass density (348.15 K, x2 = 0) was 1032.1 ± 1.1 kg/m3. The viscosity (348.15 K, x2 = 0) was 7.643 ± 0.12 mPa·s, the mass density (348.15 K, x2 = 0.059) was 1031.5 ± 1.1 kg/m3 and the viscosity (348.15 K, x2 = 0.059) was 7.314 ± 0.12 mPa·s. The mass density (348.15 K, x2 = 0.1963) was 1030 ± 1.1 kg/m3, the viscosity (348.15 K, x2 = 0.1963) was 6.397 ± 0.1 mPa·s and the mass density (348.15 K, x2 = 0.2736) was 1028.5 ± 1.1 kg/m3. For the same compound, the viscosity (348.15 K, x2 = 0.2736) was 5.688 ± 0.091 mPa·s, the mass density (348.15 K, x2 = 0.35) was 1026.1 ± 1.1 kg/m3 and the viscosity (348.15 K, x2 = 0.35) was 4.777 ± 0.078 mPa·s. The mass density (348.15 K, x2 = 0.3974) was 1024.1 ± 1.1 kg/m3, the viscosity (348.15 K, x2 = 0.3974) was 4.237 ± 0.07 mPa·s and the mass density (348.15 K, x2 = 0.4831) was 1019.8 ± 1.1 kg/m3. The viscosity (348.15 K, x2 = 0.4831) was 3.223 ± 0.056 mPa·s, the mass density (358.15 K, x2 = 0) was 1025.8 ± 1.1 kg/m3 and the viscosity (358.15 K, x2 = 0) was 6.304 ± 0.1 mPa·s. The mass density (358.15 K, x2 = 0.059) was 1025.3 ± 1.1 kg/m3, the viscosity (358.15 K, x2 = 0.059) was 6.048 ± 0.097 mPa·s and the mass density (358.15 K, x2 = 0.1963) was 1023.8 ± 1.1 kg/m3. The viscosity (358.15 K, x2 = 0.1963) was 5.322 ± 0.086 mPa·s, the mass density (358.15 K, x2 = 0.2736) was 1022.3 ± 1.1 kg/m3 and the viscosity (358.15 K, x2 = 0.2736) was 4.748 ± 0.078 mPa·s. For the same compound, the mass density (358.15 K, x2 = 0.35) was 1019.8 ± 1.1 kg/m3, the viscosity (358.15 K, x2 = 0.35) was 4.007 ± 0.067 mPa·s and the mass density (358.15 K, x2 = 0.3974) was 1017.7 ± 1.1 kg/m3. The viscosity (358.15 K, x2 = 0.3974) was 3.577 ± 0.061 mPa·s, the mass density (358.15 K, x2 = 0.4831) was 1013.2 ± 1.1 kg/m3 and the viscosity (358.15 K, x2 = 0.4831) was 2.711 ± 0.05 mPa·s.
